# Experimental data reported in patent publication US6407311B1, “Methods for production of hybrid wheat” (Yeda Research & Development Co., Ltd., priority 1997, dated 2002).
# Key:
# [1] = system: cultivars carrying the recessive allele su-B1 (e.g., Chinese Spring); settings: Snape et al, 1991; cited from earlier work
# [2] = system: plants of common wheat homozygous for the herbicide susceptibility allele su-B1; test: Spraying chlorotoluron on common wheat homozygous for su-B1; format: in vivo; settings: sprayed at double the rate recommended at commercial fields
# Excerpt: To test the effect of chlorotoluron on the various genotypes we sprayed this herbicide at a rate which is double of the recommended at commercial fields on plants of common wheat homozygous for the herbicide susceptibility allele su-B1 and the line of Ae. searsii carrying the chlorotoluron resistance allele Su-S^s1. All plants carrying the recessive su-B1 allele died within 10-14 days from spraying while those carrying the dominant Su-S^s1 allele survived.
# [3] = system: lines of diploid Aegilops species; test: Reaction of lines of diploid Aegilops species to chlorotoluron; format: in vivo; settings: most lines
# Excerpt: (§1) Different cultivars of common wheat show different reaction to the herbicide chlorotoluron and to other phenyl derivatives of urea; several cultivars carrying the dominant allele Su-B1 (e.g., Cappelle Desprez) are resistant while others carrying the recessive allele su-B1 (e.g., Chinese Spring) are susceptible (Snape et al, 1991). The gene is located on the long arm of chromosome 6B (6BL) about 0.5 cM from the centromere. […] Since chromosome 6S^sL of Ae. searsii pairs almost regularly with 6S^lL of Ae. longissima, it is possible to transfer the resistance allele to the 6S^lL arm of the engineered chromosome EC-H (FIGS. 8a,b), thus producing the engineered chromosome of the EC-HR type. […] The presence of the chlorotoluron resistance allele on the engineered chromosome facilitates the selective killing, in each generation, of the male-sterile plants that lack the engineered chromosome while unaffecting the male-fertile maintainer plants (with the engineered chromosome) in the progeny of the selfed maintainer. This will assure, that in each generation, only the male-fertile offspring of the selfed maintainer, will grow.
# [4] = system: plants with 2n=43 carrying the EC-HR1; test: Chlorotoluron on selfed progeny of EC-HR1 monosomic addition plants, 2n=43; format: in vivo, common wheat
# Excerpt: (§2) To construct the engineered chromosome EC-HR1, the dominant chlorotoluron resistance allele Su-S^s1 is transferred from chromosome arm 6S^sL of a selected line of Ae. searsii into the 6S^lL arm of the engineered chromosome EC-H1. This is achieved by crossing a […] female parent derived from the male-fertile maintainer line in the common wheat cultivar Chinese Spring. This female parent is homozygous for the ms-B1, su-B1 and Ki-B1 alleles and has, as a monosomic addition, the engineered chromosome EC-H1 (4S^sS/6S^lL) carrying on its short arm the Ms-S^s1 and rht-S^s1 alleles and on its long arm the su-S1ki-S^l1-a alleles, with a line of the diploid species Ae. searsii carrying the chlorotoluron resistance allele on the long arm of chromosome 6S^s, i.e., on 6S^sL, as well as the Ms-S^s1 and rht-S^s1 alleles on 4S^sS. About 20% of the F1 progeny have the engineered chromosome EC-H1 and therefore contain 2n=29 chromosomes and can be distinguished from the other F1 plants having 2n=28. […] Pollinating the 2n=29 F1 plants once or twice with Chinese Spring, homozygous for su-B1 yields plants with 2n=43 (21″+1′) containing the desired engineered chromosome EC-HR1 as a monosomic addition.
# [5] = system: cultivars carrying the dominant allele Su-B1 (e.g., Cappelle Desprez); settings: Snape et al, 1991; cited from earlier work
# [6] = system: line of Ae. searsii carrying the chlorotoluron resistance allele Su-S^s1; test: Spraying chlorotoluron on the Ae. searsii line carrying Su-S^s1; format: in vivo, Aegilops searsii; settings: sprayed at double the rate recommended at commercial fields
# Excerpt: as §1, with “grow. […]” for “grow.”
# [7] = system: plants with 2n=42 (lacking the EC-HR1); test: Chlorotoluron on selfed progeny of EC-HR1 monosomic addition plants, 2n=42; format: in vivo, common wheat
# Excerpt: as §2
compound,measurement,setting,value
"Cc1ccc(NC(=O)N(C)C)cc1Cl [chlorotoluron, 3-(3-chloro-p-tolyl)-1,1-dimethylurea]",reaction to the herbicide,[1],susceptible
same,outcome of plants after spraying,[2],died
same,time to death from spraying,[2],10 to 14 days
same,reaction to the herbicide,[3],susceptible
same,effect on plants carrying EC-HR1,[4],unaffected
same,reaction to the herbicide,[5],resistant
same,outcome of plants after spraying,[6],survived
same,effect on plants lacking the resistance allele,[7],kills all plants
